Measurements from BindingDB's records for doi:10.7270/Q2CN72C0 (Burnham Center For Chemical Genomics, 2010).

Each molecule was assayed against T1, Nucleotide-binding oligomerization domain-containing protein 1 (Homo sapiens, UniProt Q9Y239) (assay: NOD1 signaling inhibitors, primary screen, cell-based, luminescence, uHTS (AID 1578)).
T1 sequence (Q9Y239 whole entry): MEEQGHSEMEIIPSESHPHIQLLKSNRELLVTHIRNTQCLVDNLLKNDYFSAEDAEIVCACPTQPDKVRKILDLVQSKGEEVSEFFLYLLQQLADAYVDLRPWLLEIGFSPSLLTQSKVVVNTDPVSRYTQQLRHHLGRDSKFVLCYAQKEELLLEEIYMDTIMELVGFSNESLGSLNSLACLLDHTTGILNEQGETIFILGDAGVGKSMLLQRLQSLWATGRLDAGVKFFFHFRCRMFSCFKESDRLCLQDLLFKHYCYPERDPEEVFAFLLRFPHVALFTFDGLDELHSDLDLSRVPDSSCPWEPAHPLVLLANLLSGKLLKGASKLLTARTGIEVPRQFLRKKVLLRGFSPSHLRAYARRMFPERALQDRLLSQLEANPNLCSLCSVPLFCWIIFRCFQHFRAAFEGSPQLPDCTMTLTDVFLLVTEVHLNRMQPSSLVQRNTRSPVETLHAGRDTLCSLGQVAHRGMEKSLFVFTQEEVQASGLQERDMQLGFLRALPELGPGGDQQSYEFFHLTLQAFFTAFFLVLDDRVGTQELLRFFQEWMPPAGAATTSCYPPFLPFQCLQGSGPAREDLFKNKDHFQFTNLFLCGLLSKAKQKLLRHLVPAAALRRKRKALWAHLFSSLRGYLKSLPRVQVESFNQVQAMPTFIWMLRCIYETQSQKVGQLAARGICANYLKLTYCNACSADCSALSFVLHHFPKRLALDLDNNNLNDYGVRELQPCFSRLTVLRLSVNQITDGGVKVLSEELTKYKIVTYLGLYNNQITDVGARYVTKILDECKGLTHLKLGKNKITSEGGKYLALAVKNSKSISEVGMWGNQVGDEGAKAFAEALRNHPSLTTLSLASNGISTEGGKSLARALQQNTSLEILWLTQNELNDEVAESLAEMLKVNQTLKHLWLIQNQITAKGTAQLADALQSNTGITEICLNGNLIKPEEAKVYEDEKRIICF

Row | SMILES | EC50
1 | Oc1cccc(CN=Nc2ccc(Cl)nn2)c1O | > 20 µM
2 | COc1ccc(NS(=O)(=O)c2ccc(N=NC(C)c3ccncc3)c([N+](=O)[O-])c2)cc1 (stereo not given) [MLS000393523] | 4.33 µM
3 | C=CCN1C(=O)C(=NNC(=S)Nc2cccc(C)c2)c2ccccc21 [1-(3-methylphenyl)-3-[(Z)-(2-oxidanylidene-1-prop-2-enyl-indol-3-ylidene)amino]thiourea] | 1.09 µM
4 | Cc1cc(CN=Nc2ncnc(N)c2[N+](=O)[O-])c(C)n1-c1ccccc1 | 4.14 µM
5 | CCCCCCC1=Cc2c/c(=C3/NN/C(=C4/C=CC=CC4=O)O3)c(=O)oc2=CC1=O [(3E)-6-hexyl-3-[(5E)-5-(6-oxocyclohexa-2,4-dien-1-ylidene)-1,3,4-oxadiazolidin-2-ylidene]chromene-2,7-dione] | 4.51 µM
6 | CCCCCCC1=Cc2c/c(=C3/NN=C(c4ccccc4OC)O3)c(=O)oc2=CC1=O [6-Hexyl-7-hydroxy-3-[5-(2-methoxy-phenyl)-[1,3,4]oxadiazol-2-yl]-chromen-2-one] | 6.54 µM
7 | CCOc1ccc(-c2csc(/C(C#N)=C/C3C=CC(=O)C([N+](=O)[O-])=C3)n2)cc1 (stereo not given) [SMR000237723] | 1.52 µM
8 | CCCOC1=CC(=O)C(C=NNC(=S)Nc2ccccc2[N+](=O)[O-])C=C1 (stereo not given) [1-(2-nitrophenyl)-3-[[(E)-(6-oxo-4-propoxy-1-cyclohexa-2,4-dienylidene)methyl]amino]thiourea] | 11.9 µM
9 | O=C1C([N+](=O)[O-])=CC(Cl)=CC1CN=Nc1ccccn1 (stereo not given) [MLS000539830] | 9.12 µM
10 | Cc1cc(CN=Nc2nc(N)ncc2[N+](=O)[O-])c(C)n1-c1ccccc1F [MLS000392273] | 4.64 µM
11 | CCOC(=O)c1sc(N2C(=O)C(=O)C(C(=O)c3ccco3)C2c2cccc([N+](=O)[O-])c2)nc1C (stereo not given) [MLS001082998] | > 20 µM
12 | COc1cc(CN=Nc2nc3c(c(=O)n(C)c(=O)n3C)n2Cc2ccccc2)ccc1OC(=O)c1ccco1 [[4-[[(7-benzyl-1,3-dimethyl-2,6-dioxopurin-8-yl)hydrazinylidene]methyl]-2-methoxyphenyl] furan-2-carboxylate] | 5.22 µM
13 | Cc1ccc(O)c(/N=C/C2=CC(Cc3ccccc3)C=C([N+](=O)[O-])C2=O)c1 (stereo not given) [(6E)-6-[[(5-methyl-2-oxidanyl-phenyl)amino]methylidene]-2-nitro-4-(phenylmethyl)cyclohexa-2,4-dien-1-one] | 6.21 µM
14 | Cc1ccc(C)c(SCC(=O)OCC(=O)C(C#N)c2nc3ccccc3[nH]2)c1 (stereo not given) [MLS000392255] | > 20 µM
15 | Cc1cc(SCC(=O)OCC(=O)C(C#N)c2nc3ccccc3[nH]2)c(C)cc1Br (stereo not given) | > 20 µM
16 | Oc1c(Br)cc(Br)cc1CN=Nc1ccc(Cl)nn1 [MLS001171109] | > 20 µM
17 | CN1C(=O)C(=NNC(=S)Nc2ccccc2F)c2cc(S(=O)(=O)N3CCOCC3)ccc21 [SMR000314843] | > 20 µM
18 | C=CCN1C(=O)C(=NNC(=S)Nc2cccc(OC)c2)c2ccccc21 [SMR000132469] | > 20 µM
19 | O=C1C(=O)N(c2nccs2)C(c2ccccc2)C1C(=O)c1ccc2c(c1)OCCO2 (stereo not given) | 11.5 µM
20 | Cc1cc(N=NCc2ccccc2[N+](=O)[O-])nc(-n2nc(C)cc2C)n1 [SMR000426946] | 6.21 µM
